# Literature values as cited in patent publication US12383619B2, “Use of glutamate modulating agents with immunotherapies to treat cancer” (Biohaven Therapeutics Ltd., priority 2016, dated 2025).
# Where two headings read alike, the source gives them in different places.
# Assays:
# [1] = system: advanced NSCLC; conditions: cited from earlier work; for OS: Hazard ratio / PFS: Hazard ratio: pembrolizumab compared to docetaxel
# [2] = system: advanced melanoma; conditions: cited from earlier work; for Response duration: Median in months: patients with confirmed complete or partial response; for OS: Hazard ratio / PFS: Hazard ratio: pembrolizumab compared to ipilimumab
# [3] = TPS 1% (entire population), 75 mg/m^2 every 3 weeks
# [4] = TPS≥50% (section head prints 'TPS'), 75 mg/m^2 every 3 weeks
# [5] = TPS 1% (entire population), 2 mg/kg every 3 weeks
# [6] = TPS 1% (entire population), 10 mg/kg every 3 weeks
# [7] = TPS≥50% (section head prints 'TPS'), 2 mg/kg every 3 weeks
# [8] = TPS≥50% (section head prints 'TPS'), 10 mg/kg every 3 weeks
molecule,measurement,setting,value
"CC(=O)O[C@@]12CO[C@@H]1C[C@H](O)[C@@]1(C)C(=O)[C@H](O)C3=C(C)[C@@H](OC(=O)[C@H](O)[C@@H](NC(=O)OC(C)(C)C)c4ccccc4)C[C@@](O)([C@@H](OC(=O)c4ccccc4)[C@H]21)C3(C)C [Docetaxel, docetaxel]",PFS: Number of patients with event,"[1]; TPS 1% (entire population), 75 mg/m^2 every 3 weeks, BICR, RECIST 1.1",257
same,OS: % of patients with event,[1]; [3],(56%)
same,OS: Number of patients with event,[1]; [3],193
same,Overall response rate: ORR %,[1]; [3],9%
same,PFS: % of patients with event,[1]; [3],(75%)
same,PFS: Median in months,[1]; [3],4.0 months
same,Response duration: % ongoing,[1]; [3],34%
same,Response duration: Median in months,[1]; [3],6.2 months
same,Overall response rate: ORR %,"[1]; TPS≥50% (section head prints 'TPS'), 75 mg/m^2 every 3 weeks, all partial responses",8%
same,OS: % of patients with event,[1]; [4],(57%)
same,OS: Median in months,[1]; [4],8.2 months
same,OS: Number of patients with event,[1]; [4],86
same,PFS: % of patients with event,[1]; [4],(78%)
same,PFS: Median in months,[1]; [4],4.1 months
same,PFS: Number of patients with event,[1]; [4],118
same,Response duration: % ongoing,[1]; [4],33%
same,Response duration: Median in months,[1]; [4],8.1 months
Pembrolizumab: humanized monoclonal IgG4 antibody directed against human cell surface receptor PD-1,Best overall response: ORR %,[2]; 10 mg/kg every 2 weeks,34%
same,Complete response %,[2]; 10 mg/kg every 2 weeks,5%
same,OS: % of patients with event,[2]; 10 mg/kg every 2 weeks,(30%)
same,OS: Median in months,[2]; 10 mg/kg every 2 weeks,Not reached
same,OS: Number of patients with event,[2]; 10 mg/kg every 2 weeks,85
same,PFS: % of patients with event,[2]; 10 mg/kg every 2 weeks,(56%)
same,PFS: Median in months,[2]; 10 mg/kg every 2 weeks,5.5 months
same,PFS: Number of patients with event,[2]; 10 mg/kg every 2 weeks,157
same,Partial response %,[2]; 10 mg/kg every 2 weeks,29%
same,Response duration: % ongoing,[2]; 10 mg/kg every 2 weeks,89%
same,Response duration: Median in months,[2]; 10 mg/kg every 2 weeks,8.3 months
same,OS: Hazard ratio,[2]; 10 mg/kg every 2 weeks,0.63
same,PFS: Hazard ratio,[2]; 10 mg/kg every 2 weeks,0.58
same,Best overall response: ORR %,[2]; 10 mg/kg every 3 weeks,33%
same,Complete response %,[2]; 10 mg/kg every 3 weeks,6%
same,OS: % of patients with event,[2]; 10 mg/kg every 3 weeks,(33%)
same,OS: Median in months,[2]; 10 mg/kg every 3 weeks,Not reached
same,OS: Number of patients with event,[2]; 10 mg/kg every 3 weeks,92
same,PFS: % of patients with event,[2]; 10 mg/kg every 3 weeks,(57%)
same,PFS: Median in months,[2]; 10 mg/kg every 3 weeks,4.1 months
same,PFS: Number of patients with event,[2]; 10 mg/kg every 3 weeks,157
same,Partial response %,[2]; 10 mg/kg every 3 weeks,27%
same,Response duration: % ongoing,[2]; 10 mg/kg every 3 weeks,97%
same,Response duration: Median in months,[2]; 10 mg/kg every 3 weeks,Not reached
same,OS: Hazard ratio,[2]; 10 mg/kg every 3 weeks,0.69
same,PFS: Hazard ratio,[2]; 10 mg/kg every 3 weeks,0.58
same,PFS: Number of patients with event,"[1]; TPS 1% (entire population), 2 mg/kg every 3 weeks, BICR, RECIST 1.1",266
same,OS: % of patients with event,[1]; [5],(50%)
same,OS: Number of patients with event,[1]; [5],172
same,Overall response rate: ORR %,[1]; [5],18%
same,PFS: % of patients with event,[1]; [5],(77%)
same,PFS: Median in months,[1]; [5],3.9 months
same,Response duration: % ongoing,[1]; [5],73%
same,Response duration: Median in months,[1]; [5],Not reached
same,OS: Hazard ratio,[1]; [5],0.71
same,PFS: Hazard ratio,[1]; [5],0.88
same,PFS: Number of patients with event,"[1]; TPS 1% (entire population), 10 mg/kg every 3 weeks, BICR, RECIST 1.1",255
same,OS: % of patients with event,[1]; [6],(45%)
same,OS: Number of patients with event,[1]; [6],156
same,Overall response rate: ORR %,[1]; [6],18%
same,PFS: % of patients with event,[1]; [6],(74%)
same,PFS: Median in months,[1]; [6],4.0 months
same,Response duration: % ongoing,[1]; [6],72%
same,Response duration: Median in months,[1]; [6],Not reached
same,OS: Hazard ratio,[1]; [6],0.61
same,PFS: Hazard ratio,[1]; [6],0.79
same,Overall response rate: ORR %,"[1]; TPS≥50% (section head prints 'TPS'), 2 mg/kg every 3 weeks, all partial responses",30%
same,OS: % of patients with event,[1]; [7],(42%)
same,OS: Median in months,[1]; [7],14.9 months
same,OS: Number of patients with event,[1]; [7],58
same,PFS: % of patients with event,[1]; [7],(64%)
same,PFS: Median in months,[1]; [7],5.2 months
same,PFS: Number of patients with event,[1]; [7],89
same,Response duration: % ongoing,[1]; [7],76%
same,Response duration: Median in months,[1]; [7],Not reached
same,OS: Hazard ratio,[1]; [7],0.54
same,PFS: Hazard ratio,[1]; [7],0.58
same,Overall response rate: ORR %,"[1]; TPS≥50% (section head prints 'TPS'), 10 mg/kg every 3 weeks, all partial responses",29%
same,OS: % of patients with event,[1]; [8],(40%)
same,OS: Median in months,[1]; [8],17.3 months
same,OS: Number of patients with event,[1]; [8],60
same,PFS: % of patients with event,[1]; [8],(64%)
same,PFS: Median in months,[1]; [8],5.2 months
same,PFS: Number of patients with event,[1]; [8],97
same,Response duration: % ongoing,[1]; [8],75%
same,Response duration: Median in months,[1]; [8],Not reached
same,OS: Hazard ratio,[1]; [8],0.50
same,PFS: Hazard ratio,[1]; [8],0.59
